From patent US9790233B2, “Compositions and methods of modulating 15-PGDH activity” (CASE WESTERN RESERVE UNIVERSITY, priority 2012, dated 2017) come the findings set out here.

Where two headings read alike, the source gives them in different places.

Common to all, as to type: cell-based
The test system of experiment [1] is 15-PGDH luciferase fusion construct in V9m reporter cell line. Briefly: 15-PGDH-luciferase fusion gene reporter induction, V9m cells. The conditions noted are these: % induction of luciferase activity over basal level.
The test system of experiment [2] is 15-PGDH luciferase fusion construct in LS174T reporter cell line. Briefly: 15-PGDH-luciferase fusion gene reporter induction, LS174T cells. The conditions noted are these: Homo sapiens.
In experiment [3] the test system is 15-PGDH luciferase fusion construct in Vaco503 reporter cell line. Briefly: 15-PGDH-luciferase fusion gene reporter induction, V503 cells. The following applies: read-out: V503-3H9-7 reporter activity, % ([…]), V503 reporter cells, […] compound, % induction of luciferase activity over basal level.
Where [4] appears, read: read-out: V9M-SC3 Reporter activity ([…]) (%), V9m reporter cells, […] compound, read-out: V9M-SC3 Reporter activity (2.5 μM) (%).
Setting [5] is: read-out: V9M-SC3 Reporter activity ([…]), %, V9m reporter cells, […] compound, read-out: V9M-SC3 Reporter activity (7.5 μM), %.
Setting [6] is: read-out: Ls174T-SC1 reporter activity, % ([…]), LS174T reporter cells, […] compound, % induction of luciferase activity over basal level, read-out: Ls174T-SC1 reporter activity, % (2.5 μM).
The mark [7] stands for this setting: read-out: Ls174T-SC1 reporter activity, % ([…]), LS174T reporter cells, […] compound, % induction of luciferase activity over basal level, read-out: Ls174T-SC1 reporter activity, % (7.5 μM).
Setting [8] is: read-out: V503-3H9-7 reporter activity, % (2.5 μM).
Where [9] appears, read: read-out: V503-3H9-7 reporter activity, % (7.5 μM).

With `COc1ccc(OC)c(N(CC(=O)Nc2cccnc2)S(=O)(=O)c2c(C)cc(C)cc2C)c1` [SW202953], the activation at […] in experiment [1] (setting [4]) is 13%; in experiment [1] (setting [5]) it was 34.8%; in experiment [2] (setting [6]), 20.7%; in experiment [2] (setting [7]), 30.7%; in experiment [3] (setting [8]), 32%; in experiment [3] (setting [9]), 50.9%.

As to `COc1ccc(OC)c(N(CC(=O)Nc2cccnc2)S(=O)(=O)c2ccccc2OC(F)(F)F)c1` [SW202954], the activation at […] in experiment [1] (setting [4]) was 2.7%; in experiment [1] (setting [5]), 4.8%; in experiment [2] (setting [6]), -4.59%; in experiment [2] (setting [7]), -6.99%; in experiment [3] (setting [8]), -8.94%; in experiment [3] (setting [9]), 2.39%.

For `COc1ccc(OC)c(N(CC(=O)Nc2ccccc2OC)S(=O)(=O)c2ccccc2)c1` [SW202965], the activation at […] in experiment [1] (setting [4]) was -30.9%; in experiment [1] (setting [5]), -25.8%; in experiment [2] (setting [6]) it was -23.5%; in experiment [2] (setting [7]), 3.52%; in experiment [3] (setting [8]), 23.8%; in experiment [3] (setting [9]), 98.1%.

`COc1ccc(OC)c(N(CC(=O)Nc2ccnc(C)c2)S(=O)(=O)c2ccccc2)c1` [SW202966]: the activation at […] is -0.84% in experiment [1] (setting [4]); 67.7% in experiment [1] (setting [5]); 1.82% in experiment [2] (setting [6]); 78.2% in experiment [2] (setting [7]); 115% in experiment [3] (setting [8]); 249% in experiment [3] (setting [9]).

In the case of `COc1ccc(OC)c(N(CC(=O)Nc2cnccc2C)S(=O)(=O)c2ccccc2)c1` [SW202967], the activation at […] is -16% in experiment [1] (setting [4]); 0% in experiment [1] (setting [5]); -11.7% in experiment [2] (setting [6]); 9.37% in experiment [2] (setting [7]); 34% in experiment [3] (setting [8]); 69.6% in experiment [3] (setting [9]).

For the compound `COc1ccc(OC)c(N(CC(=O)Nc2cccnc2C)S(=O)(=O)c2ccccc2)c1` [SW202968], the activation at […] in experiment [1] (setting [4]) is -21.1%; in experiment [1] (setting [5]) it was -7.36%; in experiment [2] (setting [6]) it was -17.5%; in experiment [2] (setting [7]), 6.08%; in experiment [3] (setting [8]) it was 35.2%; in experiment [3] (setting [9]), 53.9%.

In the case of `COc1ccc(OC)c(N(CC(=O)Nc2cccc(C)c2)S(=O)(=O)c2ccccc2)c1` [SW202969], the activation at […] in experiment [1] (setting [4]) is -21%; in experiment [1] (setting [5]), -14.3%; in experiment [2] (setting [6]) it was -15.9%; in experiment [2] (setting [7]), 17.9%; in experiment [3] (setting [8]), 62.4%; in experiment [3] (setting [9]) it was 126%.

With `COc1ccc(OC)c(N(CC(=O)Nc2ccc(Cl)nc2)S(=O)(=O)c2ccccc2)c1` [SW202970], the activation at […] in experiment [1] (setting [4]) was 32.7%; in experiment [1] (setting [5]), 17.8%; in experiment [2] (setting [6]), 47.9%; in experiment [2] (setting [7]), 55.9%; in experiment [3] (setting [8]) it was 179%; in experiment [3] (setting [9]), 122%.

`COc1ccc(OC)c(N(CC(=O)OC(C)C)S(=O)(=O)c2ccccc2)c1` [SW202971]: the activation at […] in experiment [1] (setting [4]) is -14.5%; in experiment [1] (setting [5]) it was 9.67%; in experiment [2] (setting [6]) it was -7.91%; in experiment [2] (setting [7]) it was 34.5%; in experiment [3] (setting [8]), 85.5%; in experiment [3] (setting [9]), 169%.

As to `COc1ccc(OC)c(N(CC(=O)Nc2cc(C)cnc2Cl)S(=O)(=O)c2ccccc2)c1` [SW202972], the activation at […] in experiment [1] (setting [4]) was -15.4%; in experiment [1] (setting [5]), 0.14%; in experiment [2] (setting [6]), -17.4%; in experiment [2] (setting [7]), 16.6%; in experiment [3] (setting [8]), 39.4%; in experiment [3] (setting [9]), 100%.

With `COc1ccc(OC)c(N(CC(=O)Nc2cccnc2Cl)S(=O)(=O)c2ccccc2)c1` [SW202973], the activation at […] in experiment [1] (setting [4]) was -15.6%; in experiment [1] (setting [5]) it was 5.61%; in experiment [2] (setting [6]) it was -16.4%; in experiment [2] (setting [7]) it was 19.3%; in experiment [3] (setting [8]), 41.5%; in experiment [3] (setting [9]), 107%.
